For data set [1] the following is noted: cited from earlier work.
For data set [2] the following is noted: for Molar water-solubility (S): pure water, 72 h, shake-flask; for Molar water-solubility (S) / pH saturated (pH of the saturated IL solution): (298 ± 1) K; for pH saturated (pH of the saturated IL solution): saturated aqueous solution; for Aqueous solubility enhancement (S/S0) of the salt relative to its free purine: S molar water-solubility of salt at 298 K, S0 of free purine from PubChem. As for the experimental part:
IL solubility studies were performed using the isothermal shake-flask method, as reported in the literature. […] If needed, samples were centrifuged for 2 min at 12,000 rpm. Samples of the liquid phase were collected and diluted in distilled water, followed by the preparation of a calibration curve for each compound of interest. The amount of compound in the liquid phase was quantified using a UV–Vis Synergy HT microplate reader from BioTek (Winooski, VT, USA). […] All assays were performed in triplicate. The pH (±0.02) of the samples was determined by using a Mettler Toledo SevenMultiTMdual pH meter.

The subject of a further data set is Raphidocelis subcapitata. As to conditions: for EC50: 96 h incubation, microalgae yield, 95% confidence limits in parenthesis; for Acute hazard category according to European legislation: based on 96 h EC50 in mg∙L^−1. As for the experimental part: The microalgae ecotoxicity assays were conducted, as previously described in detail, using the microalgae Raphidocelis subcapitata, i.e., following the guidelines of OECD [38], and adapted to the use of 24-well microplates. […] The microalgae were exposed to a range of concentrations of each salt, and all the assays, including the MBL blank control, were conducted in triplicate. The microplates were incubated for 96 h, under controlled incubation conditions, as used for the inoculum. After that time, the microalgae yield in each treatment was calculated as the difference between the cell densities at the end and beginning of the test.

The conditions of data set [3]: TGA, nitrogen, 2 K·min^−1, peak of the derivative. As for the experimental part: The melting temperatures (Tm) were measured in a differential scanning calorimetry (DSC), using a Hitachi DSC7000X equipment at atmospheric pressure, with hermetically sealed aluminum crucibles and a constant flow of nitrogen. […] Each sample underwent three cycles of cooling and heating, at 5 K∙min^−1 and 2 K∙min^−1, respectively. The melting point of each compound was taken as the peak temperature. The determined melting points are estimated to have a 1 K uncertainty. […] Each sample was heated in an aluminia pan, under a nitrogen atmosphere, with a heating rate of 2 K·min^−1. The degradation temperature-associated uncertainty is estimated to be 0.01 K. Degradation temperature was taken as the peak temperature of the derivative.

The procedure of data set [4]: Samples were quantified, as previously described, at 316 nm (see Figure S1). All assays were performed in triplicates. To verify the integrity of the IL, the liquid phase was analyzed by ^1H and ^13C NMR.
The text on data set [5]:
Theobromine has relatively strong intermolecular hydrogen bonding between its carbonyl groups and strong π–π stacking interactions. In theophylline, the hydrogen between the two carbonyl groups is replaced by a methyl group, causing the previously mentioned interactions to be weaker. […] Adding alkyl groups to ILs usually lowers their solubility. […] The overall poor solubility of purines is connected to their inter-base hydrogen bonding. The insertion of the methyl groups replaces protons that would otherwise be available to form inter-base hydrogen bonds.
The source holds these as a separate data set.

Where [6] appears, read: IL solution 0.05 mol∙L-1 before addition of ferulic acid.
Where [7] appears, read: IL solution 0.05 mol∙L-1 saturated with ferulic acid.
Where [8] appears, read: IL solution 0.1 mol∙L-1 before addition of ferulic acid.
Setting [9] is: IL solution 0.1 mol∙L-1 saturated with ferulic acid.
Where [10] appears, read: IL solution 0.25 mol∙L-1 before addition of ferulic acid.
[11] abbreviates: IL solution 0.25 mol∙L-1 saturated with ferulic acid.
Where [12] appears, read: IL solution 0.5 mol∙L-1 before addition of ferulic acid.
Setting [13] is: IL solution 0.5 mol∙L-1 saturated with ferulic acid.
Setting [14] is: IL solution 1.0 mol∙L-1 before addition of ferulic acid.
[15] abbreviates: IL solution 1.0 mol∙L-1 saturated with ferulic acid.
[16] abbreviates: IL solution 1.5 mol∙L-1 before addition of ferulic acid.
Setting [17] is: IL solution 1.5 mol∙L-1 saturated with ferulic acid.

Read-outs that look alike come from different tables or passages of the source. A value given as a limit tells only on which side of the number the result lay.

With `O.O=c1[nH]c2nc([O-])nc([O-])c2[nH]1.[K+].[K+]` [potassium urate], in data set [1], the “Water-solubility of other urate salts” value was 12.06 mM.
On to `CCCC[N+](CCCC)(CCCC)CCCC.O=c1[n-]c2[nH]c(=O)[nH]c2c(=O)[nH]1` [[N4444][Ur], Tetrabutylammonium urate], for which, in data set [2], the “Molar water-solubility (S)” value was 96 ± 7 mM and the “pH saturated (pH of the saturated IL solution)” value turned out to be 8.31. The EC50 in the data set on Raphidocelis subcapitata was 2.7 µg/mL. For the same compound, in data set [3], the “Decomposition temperature (Td)” value was found to be 505 ± 1 K.
In the case of `CCCC[N+](CCCC)(CCCC)CCCC.O=c1[nH]c(=O)c2[n-]cnc2[nH]1` [[N4444][Xan], Tetrabutylammonium xanthinate], in data set [2], the “Molar water-solubility (S)” value was determined as 170 ± 10 mM and the “pH saturated (pH of the saturated IL solution)” value came out at 10.14. Moreover, in the data set on Raphidocelis subcapitata, the EC50 is 0.8 µg/mL and the “Acute hazard category according to European legislation” value is reported as “acute 1 (acute 1 category (EC50 < 1 mg∙L^−1))”. Also, in data set [3], the “Decomposition temperature (Td)” value was determined as 495 ± 1 K.
With `CCCC[N+](CCCC)(CCCC)CCCC.[Cl-]` [[N4444]Cl, tetrabutylammonium chloride, reference compound], the “Acute hazard category according to European legislation” value in the data set with Raphidocelis subcapitata is “acute 2 (acute 2 category (1 < EC50 < 10 mg∙L^−1))”. Moreover, the “Initial solution pH” value in data set [4] (setting [6]) was 5.71; in data set [4] (setting [8]) it was 6.31; in data set [4] (setting [10]), 5.62; in data set [4] (setting [12]) it was 4.26; in data set [4] (setting [14]), 4.04; in data set [4] (setting [16]) it was 4.20. Besides, the “Saturated solution pH” value in data set [4] (setting [7]) stood at 3.29; in data set [4] (setting [9]), 2.89; in data set [4] (setting [11]) it was 2.63; in data set [4] (setting [13]), 2.36; in data set [4] (setting [15]), 2.10; in data set [4] (setting [17]), 2.26. The pH initial in data set [5] (initial aqueous solution of [N4444]Cl 1.0 mol∙L-1) was found to be 4.23.
For the compound `O=c1[nH]c(=O)c2[nH]c([O-])nc2[nH]1.[Na+]` [sodium urate], the “Water-solubility of other urate salts” value in data set [1] is 6.76 mM.
Regarding `O=c1[nH]c(=O)c2[nH]c(=O)[nH]c2[nH]1` [uric acid], the “Molar water-solubility of the free purine (S0)” value in data set [1] ((293 ± 1) K, ref PubChem [53]) was 0.357 mM.
As for `CCCC[N+](CCCC)(CCCC)CCCC.Cn1c(=O)c2[n-]cnc2n(C)c1=O` [[N4444][Theop], Tetrabutylammonium theophyllinate], the “Aqueous solubility enhancement (S/S0) of the salt relative to its free purine” value in data set [2] came to 53 fold. Moreover, the “Molar water-solubility (S)” value in data set [2] was determined as 2200 ± 100 mM. Moreover, the “pH saturated (pH of the saturated IL solution)” value in data set [2] is on record as 10.89. In addition, the “Initial solution pH” value is given as 8.91 in data set [4] (setting [6]); 10.52 in data set [4] (setting [8]); 10.81 in data set [4] (setting [10]); 10.78 in data set [4] (setting [12]); 11.06 in data set [4] (setting [14]); 10.68 in data set [4] (setting [16]). The “Saturated solution pH” value was 5.30 in data set [4] (setting [7]); 6.44 in data set [4] (setting [9]); 6.56 in data set [4] (setting [11]); 7.65 in data set [4] (setting [13]); 8.63 in data set [4] (setting [15]); 9.95 in data set [4] (setting [17]). Moreover, the “Decomposition temperature (Td)” value in data set [3] worked out at 486 ± 1 K.
For the compound `Cn1c(=O)c2[n-]cnc2n(C)c1=O.[Na+]` [sodium theophyllinate], the “Molar solubility of sodium theophyllinate in pure water (S0)” value in data set [5] came out at 260 ± 10 mM. For the same compound, in data set [5] ([N4444]Cl 1.0 mol∙L-1 solution saturated with sodium theophyllinate), the pH saturated is reported as 10.55.
As for `CCCC[N+](CCCC)(CCCC)CCCC.Cn1cnc2c1c(=O)[n-]c(=O)n2C` [[N4444][Theob], Tetrabutylammonium theobrominate], the “Aqueous solubility enhancement (S/S0) of the salt relative to its free purine” value in data set [2] was determined as 870 fold. Further, the “Molar water-solubility (S)” value in data set [2] turned out to be 1590 ± 70 mM. For the same compound, the “pH saturated (pH of the saturated IL solution)” value in data set [2] was determined as 12.76. In addition, the “Initial solution pH” value in data set [4] (setting [6]) was 10.85; in data set [4] (setting [8]) it was 11.56; in data set [4] (setting [10]), 11.80; in data set [4] (setting [12]), 11.98. For the same compound, the “Saturated solution pH” value in data set [4] (setting [7]) turned out to be 5.36; in data set [4] (setting [9]) it was 5.54; in data set [4] (setting [11]), 8.51; in data set [4] (setting [13]), 9.62. Besides, in data set [4] (all tested IL concentrations, 303 K), the “S/S0 of ferulic acid recalculated with S0 at a similar pH to that of the sample” value is below 1. For the same compound, in data set [3], the “Decomposition temperature (Td)” value is listed as 457 ± 1 K.

These data come from PMC8620494, “Synthesis of Purine-Based Ionic Liquids and Their Applications” (Molecules, 2021).
